# Source: paper PMC4620497 (Scientific Reports, 2015)
# How the values were obtained:
# PAK4 = biological target: T1, PAK4 (Homo sapiens, UniProt O96013); assay: KINOMEscan kinase binding assay (Kd)
# T1 construct: DNA tag (qPCR read-out); purchased Ambit Biosciences (KINOMEscan service)
# CSNK2A2 = biological target: T2, CSNK2A2 (Homo sapiens, UniProt P19784); assay: KINOMEscan panel screen; type: binding; settings: read-out: Percent Control(%)
# T2 construct: purchased DiscoveRx KINOMEscan (Ambit Biosciences)
# [1] = biological target: T3, JAK3(JH1domain-catalytic) (Homo sapiens, UniProt P52333); assay: KINOMEscan panel screen; type: binding; settings: read-out: Percent Control(%)
# T3 construct: JAK3(JH1domain-catalytic); purchased DiscoveRx KINOMEscan (Ambit Biosciences)
# PIK3CA(H1047Y) = biological target: T4, PIK3CA(H1047Y) (Homo sapiens, UniProt P42336, H1047Y); assay: KINOMEscan panel screen; type: binding; settings: read-out: Percent Control(%)
# T4 construct: purchased DiscoveRx KINOMEscan (Ambit Biosciences)
# MUSK = biological target: T5, MUSK (Homo sapiens, UniProt O15146); assay: KINOMEscan panel screen; type: binding; settings: read-out: Percent Control(%)
# T5 construct: purchased DiscoveRx KINOMEscan (Ambit Biosciences)
# FAK = biological target: T6, FAK (Homo sapiens, UniProt Q05397); assay: KINOMEscan panel screen; type: binding; settings: read-out: Percent Control(%)
# T6 construct: purchased DiscoveRx KINOMEscan (Ambit Biosciences)
# YANK3 = biological target: T7, YANK3 (Homo sapiens, UniProt Q86UX6); assay: KINOMEscan panel screen; type: binding; settings: read-out: Percent Control(%)
# T7 construct: purchased DiscoveRx KINOMEscan (Ambit Biosciences)
# CAMKK2 = biological target: T8, CAMKK2 (Homo sapiens, UniProt Q96RR4); assay: KINOMEscan panel screen; type: binding; settings: read-out: Percent Control(%)
# T8 construct: purchased DiscoveRx KINOMEscan (Ambit Biosciences)
# CTK = biological target: T9, CTK (Homo sapiens, UniProt P42679); assay: KINOMEscan panel screen; type: binding; settings: read-out: Percent Control(%)
# T9 construct: purchased DiscoveRx KINOMEscan (Ambit Biosciences)
# SLK = biological target: T10, SLK (Homo sapiens, UniProt Q9H2G2); assay: KINOMEscan panel screen; type: binding; settings: read-out: Percent Control(%)
# T10 construct: purchased DiscoveRx KINOMEscan (Ambit Biosciences)
# [2] = test system: MV4-11 bone marrow transplant; assay: MV4-11 bone marrow engraftment model; type: in vivo, NOD-SCID mice; settings: for mean survival time (MST): vehicle 51 days
# Experimental: Finally, the influence of SKLB-677 on survival time was examined using a bone marrow (BM) transplant model of MV4-11. In the vehicle control group, the mean survival time (MST) was 51 days, with all animals expired by day 58.
# NOD-SCID mice were pretreated with cyclophosphamide by intraperitoneal injection of 150 mg/kg/d for 2 days. Following a 24-hour rest period, the mice were intravenously injected with 8 × 10^6 MV4-11 cells per mouse via the tail vein. From the day 21 after inoculation, SKLB-677 or vehicle was administered orally once a day for 30 days.
# Supplementary Figure S9. NOD- SC ID mice were intravenousl y inject ed with 8×10^6 MV4-11 cells per mouse via the tail vein. Oral administration of S K LB -677 at 10 mg/kg/d was initiated on day 21 after the inoculati on. Mouse ( 3mice per group) thigh femurs were collected for immunohistochemical Ki67 anal ysis after 6 d a ys of […]
# regression of bone marrow tumor. Scale bar, 100μm.
# (1 picture or pasted object on this page, not shown here)
# EGFR = biological target: T11, EGFR (Homo sapiens, UniProt P00533); assay: KINOMEscan panel screen; type: binding; settings: read-out: Percent Control(%)
# T11 construct: purchased DiscoveRx KINOMEscan (Ambit Biosciences)
# MAP3K1 = biological target: T12, MAP3K1 (Homo sapiens, UniProt Q13233); assay: KINOMEscan panel screen; type: binding; settings: read-out: Percent Control(%)
# T12 construct: purchased DiscoveRx KINOMEscan (Ambit Biosciences)
# MAP4K5 = biological target: T13, MAP4K5 (Homo sapiens, UniProt Q9Y4K4); assay: KINOMEscan panel screen; type: binding; settings: read-out: Percent Control(%)
# T13 construct: purchased DiscoveRx KINOMEscan (Ambit Biosciences)
# QSK = biological target: T14, QSK (Homo sapiens, UniProt Q9Y2K2); assay: KINOMEscan panel screen; type: binding; settings: read-out: Percent Control(%)
# T14 construct: purchased DiscoveRx KINOMEscan (Ambit Biosciences)
# PRKD3 = biological target: T15, PRKD3 (Homo sapiens, UniProt O94806); assay: KINOMEscan panel screen; type: binding; settings: read-out: Percent Control(%)
# T15 construct: purchased DiscoveRx KINOMEscan (Ambit Biosciences)
# MYLK4 = biological target: T16, MYLK4 (Homo sapiens, UniProt Q86YV6); assay: KINOMEscan panel screen; type: binding; settings: read-out: Percent Control(%)
# T16 construct: purchased DiscoveRx KINOMEscan (Ambit Biosciences)
# CSF1R-autoinhibited = biological target: T17, CSF1R-autoinhibited (Homo sapiens, UniProt P07333); assay: KINOMEscan panel screen; type: binding; settings: read-out: Percent Control(%)
# T17 construct: purchased DiscoveRx KINOMEscan (Ambit Biosciences)
# MAPKAPK2 = biological target: T18, MAPKAPK2 (Homo sapiens, UniProt P49137); assay: KINOMEscan panel screen; type: binding; settings: read-out: Percent Control(%)
# T18 construct: purchased DiscoveRx KINOMEscan (Ambit Biosciences)
# CAMK2G = biological target: T19, CAMK2G (Homo sapiens, UniProt Q13555); assay: KINOMEscan panel screen; type: binding; settings: read-out: Percent Control(%)
# T19 construct: purchased DiscoveRx KINOMEscan (Ambit Biosciences)
# PHKG2 = biological target: T20, PHKG2 (Homo sapiens, UniProt P15735); assay: KINOMEscan panel screen; type: binding; settings: read-out: Percent Control(%)
# T20 construct: purchased DiscoveRx KINOMEscan (Ambit Biosciences)
# PIM2 = biological target: T21, PIM2 (Homo sapiens, UniProt Q9P1W9); assay: KINOMEscan panel screen; type: binding; settings: read-out: Percent Control(%)
# T21 construct: purchased DiscoveRx KINOMEscan (Ambit Biosciences)
# GRK1 = biological target: T22, GRK1 (Homo sapiens, UniProt Q15835); assay: KINOMEscan panel screen; type: binding; settings: read-out: Percent Control(%)
# T22 construct: purchased DiscoveRx KINOMEscan (Ambit Biosciences)
# ACVR1B = biological target: T23, ACVR1B (Homo sapiens, UniProt P36896); assay: KINOMEscan panel screen; type: binding; settings: read-out: Percent Control(%)
# T23 construct: purchased DiscoveRx KINOMEscan (Ambit Biosciences)
# BLK = biological target: T24, BLK (Homo sapiens, UniProt P51451); assay: KINOMEscan panel screen; type: binding; settings: read-out: Percent Control(%)
# T24 construct: purchased DiscoveRx KINOMEscan (Ambit Biosciences)
# FGFR3 = biological target: T25, FGFR3 (Homo sapiens, UniProt P22607); assay: KINOMEscan panel screen; type: binding; settings: read-out: Percent Control(%)
# T25 construct: purchased DiscoveRx KINOMEscan (Ambit Biosciences)
# TGFBR2 = biological target: T26, TGFBR2 (Homo sapiens, UniProt P37173); assay: KINOMEscan panel screen; type: binding; settings: read-out: Percent Control(%)
# T26 construct: purchased DiscoveRx KINOMEscan (Ambit Biosciences)
# KIT(V559D) = biological target: T27, KIT(V559D) (Homo sapiens, UniProt P10721, V559D); assay: KINOMEscan panel screen; type: binding; settings: read-out: Percent Control(%)
# T27 construct: purchased DiscoveRx KINOMEscan (Ambit Biosciences)
# A2058 = assay: MTT cell viability assay; settings: Homo sapiens, A2058, 72 h
# TGFBR1 = biological target: T28, TGFBR1 (Homo sapiens, UniProt P36897); assay: KINOMEscan kinase binding assay (Kd)
# T28 construct: DNA tag (qPCR read-out); purchased Ambit Biosciences (KINOMEscan service)
# [3] = biological target: T29, RPS6KA5(Kin.Dom.1-N-terminal) (Homo sapiens, UniProt O75582); assay: KINOMEscan panel screen; type: binding; settings: read-out: Percent Control(%)
# T29 construct: RPS6KA5(Kin.Dom.1-N-terminal); purchased DiscoveRx KINOMEscan (Ambit Biosciences)
# GRK7 = biological target: T30, GRK7 (Homo sapiens, UniProt Q8WTQ7); assay: KINOMEscan panel screen; type: binding; settings: read-out: Percent Control(%)
# T30 construct: purchased DiscoveRx KINOMEscan (Ambit Biosciences)
# CDK3 = biological target: T31, CDK3 (Homo sapiens, UniProt Q00526); assay: KINOMEscan panel screen; type: binding; settings: read-out: Percent Control(%)
# T31 construct: purchased DiscoveRx KINOMEscan (Ambit Biosciences)
# HIPK3 = biological target: T32, HIPK3 (Homo sapiens, UniProt Q9H422); assay: KINOMEscan panel screen; type: binding; settings: read-out: Percent Control(%)
# T32 construct: purchased DiscoveRx KINOMEscan (Ambit Biosciences)
# HCK = biological target: T33, HCK (Homo sapiens, UniProt P08631); assay: KINOMEscan panel screen; type: binding; settings: read-out: Percent Control(%)
# T33 construct: purchased DiscoveRx KINOMEscan (Ambit Biosciences)
# T33 sequence (P08631 whole entry): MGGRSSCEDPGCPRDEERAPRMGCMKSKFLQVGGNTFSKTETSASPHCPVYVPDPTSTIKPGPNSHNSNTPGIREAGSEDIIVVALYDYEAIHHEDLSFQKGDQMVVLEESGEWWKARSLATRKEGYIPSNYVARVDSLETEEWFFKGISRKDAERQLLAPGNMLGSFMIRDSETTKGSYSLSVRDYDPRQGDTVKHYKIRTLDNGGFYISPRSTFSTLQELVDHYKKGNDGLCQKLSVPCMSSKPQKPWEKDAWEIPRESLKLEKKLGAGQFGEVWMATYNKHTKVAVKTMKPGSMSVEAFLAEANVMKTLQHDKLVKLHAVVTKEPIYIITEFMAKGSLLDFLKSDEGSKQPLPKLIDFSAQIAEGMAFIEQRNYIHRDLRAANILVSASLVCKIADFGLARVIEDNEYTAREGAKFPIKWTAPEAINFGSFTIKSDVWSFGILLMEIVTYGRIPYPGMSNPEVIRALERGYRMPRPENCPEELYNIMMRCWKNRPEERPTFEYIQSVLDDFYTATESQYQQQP
# T21 sequence (Q9P1W9 whole entry): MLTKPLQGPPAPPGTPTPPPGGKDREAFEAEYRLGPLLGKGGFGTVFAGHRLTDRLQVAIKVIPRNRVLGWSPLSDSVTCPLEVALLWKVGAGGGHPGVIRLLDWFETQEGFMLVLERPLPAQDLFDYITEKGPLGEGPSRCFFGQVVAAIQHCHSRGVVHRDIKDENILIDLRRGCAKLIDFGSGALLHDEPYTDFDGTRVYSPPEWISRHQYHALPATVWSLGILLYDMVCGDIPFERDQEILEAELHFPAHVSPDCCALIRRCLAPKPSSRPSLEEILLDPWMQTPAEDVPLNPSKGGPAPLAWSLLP
# T28 sequence (P36897 34-503): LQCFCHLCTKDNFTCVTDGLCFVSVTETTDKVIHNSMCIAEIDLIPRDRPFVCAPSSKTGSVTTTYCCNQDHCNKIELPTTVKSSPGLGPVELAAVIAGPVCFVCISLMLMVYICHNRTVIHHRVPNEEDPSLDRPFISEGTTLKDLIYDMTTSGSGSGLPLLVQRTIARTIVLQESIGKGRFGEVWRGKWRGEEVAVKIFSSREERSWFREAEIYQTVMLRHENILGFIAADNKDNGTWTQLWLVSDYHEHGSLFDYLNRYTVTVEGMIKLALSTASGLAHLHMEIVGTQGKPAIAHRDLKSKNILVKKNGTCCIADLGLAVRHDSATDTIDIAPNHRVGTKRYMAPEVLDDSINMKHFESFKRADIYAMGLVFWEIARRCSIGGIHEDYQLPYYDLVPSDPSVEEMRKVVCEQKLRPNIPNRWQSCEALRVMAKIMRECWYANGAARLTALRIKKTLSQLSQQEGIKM
# T19 sequence (Q13555 whole entry): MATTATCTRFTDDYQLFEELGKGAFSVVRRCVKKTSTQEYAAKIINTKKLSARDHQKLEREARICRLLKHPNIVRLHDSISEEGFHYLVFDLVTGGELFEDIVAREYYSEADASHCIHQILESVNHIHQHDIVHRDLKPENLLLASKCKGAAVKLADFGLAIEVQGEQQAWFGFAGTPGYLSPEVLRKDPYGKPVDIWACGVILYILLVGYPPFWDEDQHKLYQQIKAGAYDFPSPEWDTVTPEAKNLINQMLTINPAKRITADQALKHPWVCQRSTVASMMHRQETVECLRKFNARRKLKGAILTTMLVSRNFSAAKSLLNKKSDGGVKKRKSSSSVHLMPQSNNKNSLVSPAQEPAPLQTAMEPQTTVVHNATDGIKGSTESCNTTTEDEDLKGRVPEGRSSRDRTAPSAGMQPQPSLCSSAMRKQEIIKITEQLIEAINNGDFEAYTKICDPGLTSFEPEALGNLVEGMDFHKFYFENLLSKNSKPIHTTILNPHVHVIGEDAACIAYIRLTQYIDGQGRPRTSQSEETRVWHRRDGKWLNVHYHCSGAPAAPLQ
# T12 sequence (Q13233 whole entry): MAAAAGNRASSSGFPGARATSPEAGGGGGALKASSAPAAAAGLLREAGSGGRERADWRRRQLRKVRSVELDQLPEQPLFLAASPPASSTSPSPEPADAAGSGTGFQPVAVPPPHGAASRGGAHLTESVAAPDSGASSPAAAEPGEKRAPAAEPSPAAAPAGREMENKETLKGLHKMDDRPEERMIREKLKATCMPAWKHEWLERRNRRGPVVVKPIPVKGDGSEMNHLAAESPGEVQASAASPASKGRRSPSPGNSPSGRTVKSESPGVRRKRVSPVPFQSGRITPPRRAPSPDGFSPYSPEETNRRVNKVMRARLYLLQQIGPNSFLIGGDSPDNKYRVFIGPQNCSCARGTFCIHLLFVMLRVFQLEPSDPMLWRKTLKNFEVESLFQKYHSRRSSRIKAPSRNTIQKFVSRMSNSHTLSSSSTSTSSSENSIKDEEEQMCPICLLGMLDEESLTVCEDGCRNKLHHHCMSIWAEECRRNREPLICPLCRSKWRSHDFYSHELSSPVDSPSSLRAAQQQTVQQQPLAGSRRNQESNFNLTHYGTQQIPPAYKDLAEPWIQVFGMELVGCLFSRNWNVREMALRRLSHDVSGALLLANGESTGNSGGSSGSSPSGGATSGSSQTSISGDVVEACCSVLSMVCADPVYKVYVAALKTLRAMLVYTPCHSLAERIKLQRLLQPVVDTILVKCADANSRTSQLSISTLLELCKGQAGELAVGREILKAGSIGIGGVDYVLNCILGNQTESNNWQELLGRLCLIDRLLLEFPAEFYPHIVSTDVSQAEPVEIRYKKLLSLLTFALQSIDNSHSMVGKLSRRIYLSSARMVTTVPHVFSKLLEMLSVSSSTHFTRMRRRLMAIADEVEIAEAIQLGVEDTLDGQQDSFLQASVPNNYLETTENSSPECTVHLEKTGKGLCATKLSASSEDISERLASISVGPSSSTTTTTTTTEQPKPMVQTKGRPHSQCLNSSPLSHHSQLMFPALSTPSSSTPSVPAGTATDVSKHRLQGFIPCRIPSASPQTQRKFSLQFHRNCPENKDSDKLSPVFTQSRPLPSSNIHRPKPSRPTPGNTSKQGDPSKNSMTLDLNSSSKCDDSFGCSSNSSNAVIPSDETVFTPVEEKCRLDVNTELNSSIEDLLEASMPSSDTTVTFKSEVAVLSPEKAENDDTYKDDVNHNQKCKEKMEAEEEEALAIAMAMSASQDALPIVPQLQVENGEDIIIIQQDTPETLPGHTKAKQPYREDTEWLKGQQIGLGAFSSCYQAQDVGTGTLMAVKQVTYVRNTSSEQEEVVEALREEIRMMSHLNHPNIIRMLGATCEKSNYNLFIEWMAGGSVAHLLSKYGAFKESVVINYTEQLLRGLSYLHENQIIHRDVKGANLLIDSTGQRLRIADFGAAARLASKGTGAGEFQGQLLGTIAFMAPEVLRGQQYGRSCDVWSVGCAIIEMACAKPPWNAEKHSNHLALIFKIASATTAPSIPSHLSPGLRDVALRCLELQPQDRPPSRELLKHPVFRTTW
# T8 sequence (Q96RR4 whole entry): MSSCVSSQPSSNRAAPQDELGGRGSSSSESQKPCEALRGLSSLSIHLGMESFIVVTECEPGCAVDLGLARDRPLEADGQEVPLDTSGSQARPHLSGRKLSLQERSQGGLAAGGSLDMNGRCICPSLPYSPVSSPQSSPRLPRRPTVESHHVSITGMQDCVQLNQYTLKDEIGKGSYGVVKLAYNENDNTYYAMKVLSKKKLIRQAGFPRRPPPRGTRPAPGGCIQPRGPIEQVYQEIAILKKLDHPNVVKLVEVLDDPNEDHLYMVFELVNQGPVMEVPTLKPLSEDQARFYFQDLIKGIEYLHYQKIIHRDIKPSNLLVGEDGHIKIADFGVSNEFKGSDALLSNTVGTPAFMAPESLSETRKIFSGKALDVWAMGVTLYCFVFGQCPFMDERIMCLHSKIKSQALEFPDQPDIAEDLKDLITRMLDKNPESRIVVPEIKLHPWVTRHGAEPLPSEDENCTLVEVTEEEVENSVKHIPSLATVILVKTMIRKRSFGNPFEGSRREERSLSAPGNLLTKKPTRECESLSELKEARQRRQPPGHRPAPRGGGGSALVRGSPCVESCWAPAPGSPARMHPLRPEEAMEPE
# T29 sequence (O75582 49-318 limits assumed): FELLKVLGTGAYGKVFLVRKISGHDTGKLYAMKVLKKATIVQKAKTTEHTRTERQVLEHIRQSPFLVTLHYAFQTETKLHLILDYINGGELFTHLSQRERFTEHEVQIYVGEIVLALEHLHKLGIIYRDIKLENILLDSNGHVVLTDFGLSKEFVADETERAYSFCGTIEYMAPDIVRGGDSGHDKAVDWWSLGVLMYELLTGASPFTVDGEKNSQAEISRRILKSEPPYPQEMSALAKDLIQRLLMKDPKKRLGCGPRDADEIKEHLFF
# T23 sequence (P36896 24-505): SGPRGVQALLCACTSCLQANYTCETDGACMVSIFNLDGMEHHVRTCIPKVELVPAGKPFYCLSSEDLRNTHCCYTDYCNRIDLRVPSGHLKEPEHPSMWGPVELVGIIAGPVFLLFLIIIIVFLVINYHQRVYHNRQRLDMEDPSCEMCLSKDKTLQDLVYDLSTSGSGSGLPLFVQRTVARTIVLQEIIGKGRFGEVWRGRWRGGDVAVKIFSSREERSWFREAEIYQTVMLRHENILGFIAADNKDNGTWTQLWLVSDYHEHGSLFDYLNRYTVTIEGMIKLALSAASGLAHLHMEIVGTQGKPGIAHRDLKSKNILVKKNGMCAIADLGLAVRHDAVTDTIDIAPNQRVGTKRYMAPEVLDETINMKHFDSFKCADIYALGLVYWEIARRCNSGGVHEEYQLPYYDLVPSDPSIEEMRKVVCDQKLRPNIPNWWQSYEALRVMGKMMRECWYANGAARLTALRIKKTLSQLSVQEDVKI
# T3 sequence (P52333 822-1111 limits assumed): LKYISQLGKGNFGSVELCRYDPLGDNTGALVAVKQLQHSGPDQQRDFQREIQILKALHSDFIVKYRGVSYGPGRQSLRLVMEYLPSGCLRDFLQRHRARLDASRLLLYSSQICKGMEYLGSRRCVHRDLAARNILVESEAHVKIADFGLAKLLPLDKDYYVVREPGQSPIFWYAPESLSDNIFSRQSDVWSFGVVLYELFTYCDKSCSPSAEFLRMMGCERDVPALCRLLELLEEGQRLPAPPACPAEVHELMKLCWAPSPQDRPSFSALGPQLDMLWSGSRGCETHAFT
smiles,measurement,setting,value
"CC(C)(C)c1cc(NC(=O)Nc2ccc(Oc3ncnc4[nH]ncc34)c(F)c2)no1 [SKLB-677, 1-(4-(1H-pyrazolo[3,4-d]pyrimidin-4-yloxy)-3-fluorophenyl)-3-(5-tert-butylisoxazol-3-yl)urea]",Kd,PAK4,> 10 µM
same,remaining binding at 10 µM,CSNK2A2,71%
same,remaining binding at 10 µM,[1],14%
same,remaining binding at 10 µM,PIK3CA(H1047Y),100%
same,remaining binding at 10 µM,MUSK,0%
same,remaining binding at 10 µM,FAK,84%
same,remaining binding at 10 µM,YANK3,97%
same,remaining binding at 10 µM,CAMKK2,30%
same,remaining binding at 10 µM,CTK,37%
same,remaining binding at 10 µM,SLK,0.2%
same,mean survival time (MST),[2]; 3 mg/kg/day orally for 30 days,66 days
same,number of Ki67-positive cells in femur BM,[2]; 10 mg/kg/d for 6 days,obviously decreased
same,mean survival time (MST),[2]; 10 mg/kg/day orally for 30 days,78.5 days
same,mean survival time (MST),[2]; 30 mg/kg/day orally for 30 days,85.5 days
same,remaining binding at 10 µM,EGFR,29%
same,remaining binding at 10 µM,MAP3K1,36%
same,remaining binding at 10 µM,MAP4K5,2%
same,remaining binding at 10 µM,QSK,91%
same,remaining binding at 10 µM,PRKD3,100%
same,remaining binding at 10 µM,MYLK4,78%
same,remaining binding at 10 µM,CSF1R-autoinhibited,0.1%
same,remaining binding at 10 µM,MAPKAPK2,100%
same,remaining binding at 10 µM,CAMK2G,66%
same,remaining binding at 10 µM,PHKG2,100%
same,remaining binding at 10 µM,PIM2,37%
same,remaining binding at 10 µM,GRK1,97%
same,remaining binding at 10 µM,ACVR1B,100%
same,remaining binding at 10 µM,BLK,0.95%
same,remaining binding at 10 µM,FGFR3,12%
same,remaining binding at 10 µM,TGFBR2,100%
same,remaining binding at 10 µM,KIT(V559D),0%
same,IC50,A2058,> 10 µM
same,Kd,TGFBR1,> 10 µM
same,remaining binding at 10 µM,[3],66%
same,remaining binding at 10 µM,GRK7,87%
same,remaining binding at 10 µM,CDK3,0.2%
same,remaining binding at 10 µM,HIPK3,1.2%
same,remaining binding at 10 µM,HCK,0.5%
